For data set [1] the following is noted: cited from earlier work.
The conditions of data set [2]: cited from earlier work. The source holds these as a separate data set.
The subject of the next data set is plasma protein. Particulars: cited from earlier work.
For data set [3] the following is noted: cited from earlier work; for Solubility in Water at 25°C: descriptions and ranges based on USP definitions.
Data set [4] is described as follows: Solubility assessment in milk vehicles and 10 mM sodium phosphate buffer pH 6.8, HPLC analysis. Format: physicochemical. As to conditions: for USP solubility classification: across tested media; for solubility at 60 min: thermodynamic from solid. As for the experimental part:
Solubility assessment was performed in all milk vehicles listed above. A 10 mM sodium phosphate buffer pH 6.8 was also included as a control. For each solubility sample, an excess amount of drug powder was weighed in a 20-mL glass vial. A suitable volume of the vehicle, pre-equilibrated to the desired temperature, was added to the drug powder. The samples were stirred for 60 minutes at 38°C or 20°–25°C [room temperature (RT)] prior to processing. The temperature of 38°C reflects the rectal temperature the healthy adult cow, 38°C [17].
Upon completion of this portion of the test procedure, approximately 2 mL of the solubility sample was passed through the Phenex-GF 1.2 μm filter to remove the excess drug solid. The filtration and solvent extraction steps were carried out immediately for each sample after the solubility testing was completed. All supplies used in the filtration were pre-equilibrated at the corresponding temperature. […] An aliquot of 0.5 mL filtrate was accurately transferred to a microcentrifuge tube followed by the addition of 1 mL extraction solvent. The extraction solvent was 0.1% TFA in acetonitrile (mobile phase channel B). The mixture was then centrifuged at 10,000 rpm, and about 1 mL of the supernatant was passed through a Phenex-RC 0.45 μm filter. The filtrate was collected in an HPLC autosampler vial and analyzed by the HPLC method described below.
A gradient HPLC method, described in Table 5, was used to analyze the concentration of all drug solubility samples after treatment.

Details of data set [5]: method as in earlier work. As to conditions: cited from earlier work.
Data set [6] in a line: Solubility in milk related vehicles, previous study (Li et al., 2022). Format: physicochemical. As to conditions: RT; data ref 6.
Where [7] appears, read: room temperature, expressed as free form of cephapirin.

≈ marks a conversion by molar mass, not a printed value. Structures can show the parent of a compound that is named as a salt. Where two headings read alike, the source gives them in different places. Marks after values point to notes of the source that are not given here.

For the molecule `CN(C)CCC=C1c2ccccc2CCc2ccccc21` [Amitriptyline HCl], the “Log P” value in data set [1] (free base) is given as 5.0; in data set [1] (pH 7.4), 3.0. Also, the pKa in data set [2] (base) is 9.45 (base). Further, the “Ionization state at pH 7” value in data set [2] is on record as “Positively charged”. Besides, the “Plasma Protein Binding” value with plasma protein was ~ 95%. For the same molecule, in data set [3], the “Solubility in Water at 25°C” value is listed as “Freely Soluble (100–1000 mg/mL)”.
On to `CC(=O)OCC1=C(C(=O)O)N2C(=O)[C@@H](NC(=O)CSc3ccncc3)[C@H]2SC1.CC(=O)OCC1=C(C(=O)O)N2C(=O)[C@@H](NC(=O)CSc3ccncc3)[C@H]2SC1.c1ccc(CNCCNCc2ccccc2)cc1` [Cephapirin Benzathine, Cephapirin benzathine], for which the “Solubility, Raw Milk” value in data set [4] (38°C, expressed as free form of cephapirin) is listed as 0.706 ± 0.021 mg/mL. Moreover, the “Solubility, Reconstituted Whole Milk Powder (Nestle), Lot 1” value in data set [4] (38°C, milk powder Lot 1, expressed as free form of cephapirin) is 0.740 ± 0.005 mg/mL. Besides, the “Solubility, Reconstituted Whole Milk Powder (Nestle), Lot 2” value in data set [4] (38°C, milk powder Lot 2, expressed as free form of cephapirin) was 0.762 ± 0.028 mg/mL. The USP solubility classification result in data set [4] is recorded as “very slightly soluble”. For the same molecule, in data set [4] (setting [7]), the “Solubility, Raw Milk” value came out at 0.476 ± 0.003 mg/mL; the “Solubility, Reconstituted Whole Milk Powder (Nestle)” value worked out at 0.508 ± 0.006 mg/mL; the “Solubility, Skim Milk” value came to 0.460 ± 0.007 mg/mL; the “Solubility, Whole Milk” value turned out to be 0.509 ± 0.010 mg/mL. For the same molecule, in data set [4] (setting [7]), the “Solubility, pH 6.8 buffer (control)” value turned out to be 0.352 ± 0.003 mg/mL. The “Solubility in 0.1 N HCl (descriptive)” value in data set [3] (0.1 N HCl) is “soluble”. The “Solubility in alcohol (descriptive)” value in data set [3] (alcohol) was “freely soluble”. For the same molecule, in data set [3] (ether), the “Solubility in ether (descriptive)” value is given as “practically insoluble”. The “Solubility in toluene (descriptive)” value in data set [3] (toluene) was “practically insoluble”. Further, the “Solubility in water (descriptive)” value in data set [3] is reported as “practically insoluble”.
With `CC(=O)OCC1=C(C(=O)O)N2C(=O)[C@@H](NC(=O)CSc3ccncc3)[C@H]2SC1` [Cephapirin Sodium, Cephapirin sodium], the solubility at 60 min in data set [4] (10 mM sodium phosphate buffer, pH 6.8, aqueous buffer, room temperature, expressed as free form of cephapirin, read-out: Solubility, pH 6.8 buffer (control)) is over 200 mg/mL; in data set [4] (bovine, 38 °C, plasma or biological fluid, reconstituted and raw milk, read-out: Solubility in reconstituted and raw milk) it was over 500 mg/mL; in data set [4] (bovine, milk vehicles (all tested media except the pH 6.8 buffer), plasma or biological fluid, all tested media with the exception of the pH 6.8 aqueous buffer, read-out: Solubility in the tested media) it was over 350 mg/mL; in data set [4] (bovine, raw milk, plasma or biological fluid, 38°C, expressed as free form of cephapirin, read-out: Solubility, Raw Milk), over 500 mg/mL; in data set [4] (bovine, raw milk, plasma or biological fluid, room temperature, expressed as free form of cephapirin, read-out: Solubility, Raw Milk) it was over 350 mg/mL; in data set [4] (bovine, reconstituted whole milk powder (Nestle), plasma or biological fluid, room temperature, expressed as free form of cephapirin, read-out: Solubility, Reconstituted Whole Milk Powder (Nestle)), over 350 mg/mL. Besides, the solubility at 60 min in data set [4] (bovine, skim milk, plasma or biological fluid, room temperature, expressed as free form of cephapirin, read-out: Solubility, Skim Milk) is over 350 mg/mL; in data set [4] (bovine, whole milk, plasma or biological fluid, room temperature, expressed as free form of cephapirin, read-out: Solubility, Whole Milk), over 350 mg/mL; in data set [4] (reconstituted whole milk powder (Nestle), plasma or biological fluid, 38°C, expressed as free form of cephapirin, read-out: Solubility, Reconstituted Whole Milk Powder (Nestle)) it was over 500 mg/mL. Besides, in data set [4], the USP solubility classification entry is listed as “freely soluble”. Also, in data set [3] (most organic solvents), the “Solubility in most organic solvents (descriptive)” value is “insoluble”. In addition, the “Solubility in water (descriptive)” value in data set [3] is listed as “very soluble”.
As for `CN1C(C(=O)Nc2ccccn2)=C(O)c2ccccc2S1(=O)=O` [Piroxicam], the lipophilicity (Log P) in data set [1] (pH 6.5) is -1.33; in data set [1] (pH 6.6), 0.72. Besides, the “Plasma Protein Binding” value in the data set on plasma protein is ~ 99%. Further, the “Solubility in Water at 25°C” value in data set [3] was “Practically Insoluble (≤ 0.1 mg/mL)^c”. The “Solubility in aqueous buffer” value in data set [5] (aqueous buffer) is listed as 0.287 ± 0.019 mg/mL (≈ 866 µM). Besides, the “Solubility in skim milk” value in data set [5] (skim milk) is 0.262 ± 0.005 mg/mL (≈ 791 µM).
Regarding `C[C@@H]1C[C@H]2[C@@H]3CCC4=CC(=O)C=C[C@]4(C)[C@@]3(F)[C@@H](O)C[C@]2(C)[C@@]1(O)C(=O)CO` [Dexamethasone], in data set [6], the “Ratio of solubility, Reconstituted whole milk versus raw milk” value worked out at 1.16; the “Ratio of solubility, Skim milk versus raw milk” value is listed as 1.04; the “Ratio of solubility, Whole milk versus raw milk” value is 1.08; the “Ratio of solubility, pH 6.8 buffer versus raw milk” value came to 0.64. Also, the pKa result in data set [2] (in words) is given as “Non-ionizable”. Also, the “Ionization state at pH 7” value in data set [2] is given as “Neutral”. The “Plasma Protein Binding” value in the data set with plasma protein is listed as about 77%. Further, in data set [3], the “Solubility in Water at 25°C” value is on record as “Practically Insoluble (≤ 0.1 mg/mL)”.
Regarding `C[C@]12C=CC(=O)C=C1CC[C@@H]1[C@@H]2[C@@H](O)C[C@@]2(C)[C@H]1CC[C@]2(O)C(=O)CO` [Prednisolone], in data set [1], the log partition coefficient (Log P) is reported as ~ 1.6. Also, in data set [2] (in words), the pKa result is given as “Non-ionizable”. The “Ionization state at pH 7” value in data set [2] is given as “Neutral”. Moreover, the “Plasma Protein Binding” value in the data set on plasma protein is given as 60–90%.
Consider `CC(=O)Nc1ccc(O)cc1` [Acetaminophen], for which, in data set [6], the “Ratio of solubility, Reconstituted whole milk versus raw milk” value worked out at 1.01; the “Ratio of solubility, Skim milk versus raw milk” value is on record as 1.08; the “Ratio of solubility, Whole milk versus raw milk” value is 1.05; the “Ratio of solubility, pH 6.8 buffer versus raw milk” value amounted to 1.05. Also, the “Ionization state at pH 7” value in data set [2] is “Neutral”. Also, in the data set with plasma protein, the “Plasma Protein Binding” value is given as 20–25%. Further, in data set [3], the “Solubility in Water at 25°C” value is given as “Sparingly Soluble (10–33 mg/mL)”.
